Data from patent publication US6787149B1 (El Khoury and Stein Ltd., priority 2000, dated 2004).

Legend:
[1] = test system: patients who had burns from radiation therapy
[2] = test system: patients who had undergone failed back operations; details: 1-3 mg on the back, ultrasound, massage, heat, Aquaphor vehicle; cited from earlier work
[3] = test system: patients who had acute shingles; experiment: Analgesia for shingles, morphine spray; assay type: in vivo, human
Source text: Other patients who were helped were those who had acute shingles which would produce excruciating pain on the chest.

[4] = test system: children undergoing tonsillectomy; experiment: Analgesia for postsurgical pain after tonsillectomy, morphine spray on tonsil beds; assay type: in vivo, human; details: spray in saline on the tonsil beds after surgery; able to swallow and eat ice cream same day
Source text: The morphine spray in saline was used on the tonsil beds after surgery in children undergoing tonsillectomy.

[5] = test system: intraarticular opioid receptors; experiment: Intraarticular injection after arthroscopic surgery of the knee; assay type: in vivo, human; details: injected in the knee after arthroscopic surgery
[6] = after two or three days of using the spray

SMILES | Relief of pain, patients with pain on the tongue or in the mouth due to radiation burns ([1]; compared with skin radiation burn patients) | Time able to sit to do exercises after topical application ([1]; one patient with severe burns on the buttocks, could not sit before) | Relief of pain, one patient with severe burns on the buttocks (prostate cancer) ([1]; spray) | Start of relief after topical application ([1]; two or three mg diluted with saline, sprayed) [min] | Relief of pain ([1]; two or three mg diluted with saline, sprayed over inflamed area, all patients treated) | Pain relief [2] | Healing [3, 6] | Post-herpetic neuralgia [3, 6] | Pain of acute shingles ([3]; spray, typically three times a day) | Pain after surgery [4] | Duration of relief after surgery [5] [h]
CN1CC[C@]23c4c5ccc(O)c4O[C@H]2[C@@H](O)C=C[C@H]3[C@H]1C5.O=S(=O)(O)O [Morphine, morphine sulfate] | same experience | an hour and a half | excellent relief of the pain | 10 to 15 | excellent relief of pain | Some improvement in pain relief | healed faster | without any post-herpetic neuralgia | significantly reduced | no pain after surgery | –
CCCCN1CCCCC1C(=O)Nc1c(C)cccc1C (centres unmarked) [Marcaine] | – | – | – | – | – | – | – | – | – | – | ≤ 12
